Source: patent publication US5677349A, “Agmatine for the treatment of neurotrauma and neurodegenerative diseases” (priority 1995, dated 1997)
Counter-ions that a name gives are not always drawn. Like-named read-outs stand apart in the source and are kept apart here.

How the values were obtained:
[1] = test system: ischemia-induced nerve cell death; settings: gerbils; Gilad et al. 1989, 1991, 1992; cited from earlier work
[2] = test system: pyramidal neurons of the CA1 layer of the anterior hippocampus; experiment: animal or person; format: in vivo
Description: Male mongolian gerbils, aged 2.5-5 months, housed 4-8 in a cage, are supplied freely with food and water and maintained at 24° C. with a 12 hour day/night cycle. For surgery, the animals are anesthetized with halothane (1.5% in 100% O2) and the common carotid arteries exposed bilaterally through a midline ventral neck incision. Each artery is clamped for 5 minutes with aneurysm clips to produce global brain ischemia. The anesthesia is discontinued upon clamping. After 5 minutes the clamps are removed and the wound closed with skin clips
For treatment, the test compound or saline (0.9% NaCl, vehicle) are injected intraperitoneally (ip) in a volume of 50 microliters of solvent per 10 g body weight. The first injection is given 5 minutes after clamp removal, and thereafter daily for the next 2 post-operative days (total of 3 injections).
Four general groups, each of 4-8 animals were compare:
1. Control (sham, or unoperated and vehicle treated);
2. Ischemia, untreated or vehicle treated;
3. Ischemia, test compound treated, one sub-group per concentration tested;
4. Ischemia and pentobarbital (40 mg/kg) as positive control.
Analysis of neuronal damage was performed 14 days post-ischemia by counting pyramidal neurons throughout the CA1 layer of the anterior hippocampus in 4 micrometer thick (paraffin) coronal brain sections, stained with hematoxylin eosin. Values of cell numbers in the hippocampi of individual gerbils were expressed as percent of intact controls (control cell counts were 275±25 cells/mm^2).
Percent Protection values represent the fraction of hippocampi protected from ischemia in a group of animals treated with the stated dose of compound.

[3] = test system: nerve cell survival after NMDA neurotoxic challenge; experiment: Reversal of N-methyl-D-aspartate induced cell death in culture; settings: for Percent Protection: after NMDA, survival minus NMDA effect
Description: The cerebellum is aseptically dissociated from 6 or 7-day old rat pups and placed in a 15 ml sterile plastic conical tube containing 3 ml of Dulbecco's modified Eagle's medium containing high glucose concentration ([…]), 2 Mm (v/v) L-glutamine and an antibiotic mixture. The cerebella are then dissociated after 20-25 passages through a sterile 13 gauge, 10 cm long stainless steel needle attached to a 5 ml syringe with an inserted 45 micrometer pore nylon sieve. The dissociated cells are centrifuged at 200 g for 5 minutes. The supernatant is discarded and the cells resuspended in medium enriched with 15% (v/v) heat inactivated fetal calf serum. Cell viability is determined by the trypan blue exclusion test.
Cells are plated at a density of 200/mm^2 on poly-L-lysine coated surfaces which are prepared at least one hour in advance of plating by covering the surfaces (plastic Petri dishes or glass coverslips) with sterile distilled water solution containing 15 micrograms/ml poly-L-lysine, and washing in sterile water just prior to use. The plated cells are covered with enriched medium and incubated at 37° C. in an atmosphere of 5% CO2 in air and 97% humidity. After three days in culture, the media is replaced with media containing the desired compound. Each compound is tested in duplicate and each experiment repeated at least once.
Four groups were run in each set of experiments:
1. Control, consisting of cells grown in enriched media alone;
2. N-methyl-D-aspartate (NMDA, 1 Mm for 3 hours) as the cytotoxic challenge;
3. Test compound added after the NMDA challenge;
4. Positive control, spermine or spermidine (0.01 μM) after NMDA.
The number of surviving cells was examined 24 hours after the challenge. Surviving cells in culture are measured relative to control (100%) as described above. Percent Protection is the cell survival for the test compound minus the NMDA effect. […] The Effective Protection value was calculated as the percent of the Percent Protection (X) divide by the maximal protection value (e.g. X×100/70).

[4] = Effect on nerve cell survival and toxicity in culture (dissociated neonatal rat cerebellum); format: cell-based; settings: rat, cerebellar nerve cells
Description: (§1) A concentration-dependent (dose-response) effect on nerve cell survival was determined for each compound at a concentration range of 0.001-5000 micromolar (μM). The compounds were added to 3-day-old cultures and the effect was examined 24 hours later.
(§2) Nerve cell survival was evaluated by phase contrast microscopy and trypan blue exclusion staining.
(§3) The results, summarized in Table 1, show the compound concentrations at which 20% or more cells survived (Survival) relative to controls, and at which 50% of the cells died (TD50) when compared to controls. Control cultures were grown in enriched medium alone and represent 100% values.

cell proliferation = experiment: Toxicity and cell proliferation, general statement; format: cell-based
[5] = animals; background; cited from earlier work
nicotine receptors = settings: background; cited from earlier work
[6] = test system: ADP-ribosylation of proteins; settings: acts as ADP-ribose acceptor; background; cited from earlier work
[7] = test system: intracellular imidazoline receptors; settings: background; cited from earlier work
NMDA receptors = settings: background; cited from earlier work
nerve cell survival = experiment: Effect on nerve cell survival and toxicity in culture (dissociated neonatal rat cerebellum); format: cell-based; settings: 24 hours
Description: as §1, §2, §3

[8] = Meriones unguiculatus, Pyramidal neuron, ip, 336 h, read-out: Percent Protection
[9] = Rattus norvegicus, 24 h, read-out: Effective Protection
[10] = Rattus norvegicus, 24 h, read-out: Surviving Cells in Culture
[11] = 24 hours, 3-day-old cultures, read-out: TD50 (concentration at which 50% of the cells died)
[12] = TD50 (concentration at which 50% of the cells died)

SMILES	responders at 10 mg/kg [2, 8]	Percent Protection ([3]; 0.01 μM)	inhibition at 0.01 µM [3, 9]	viability at 0.01 µM [3, 10]	CC50 at 24 h [4, 11]	Percent Protection ([3]; 10 μM)	Percent Protection ([3]; 50 μM)	inhibition at 10 µM [3, 9]	inhibition at 50 µM [3, 9]	viability at 10 µM [3, 10]	viability at 50 µM [3, 10]	CC50 at 24 h [4, 12]	other results
NCCCCNCCCN [Spermidine]	50%	48%	69%	78%	2 µM								Effect against ischemia-induced nerve cell death [1]: protecting against ischemia-induced nerve cell death in gerbils; Percent Protection ([3]; 0.005 μM): 0%; inhibition at 0.005 µM [3, 9]: 0%; viability at 0.005 µM [3, 10]: 30%
N=C(N)NCCCCN [Agmatine, agmatine]	20%				500 µM	35%	51%	50%	73%	65%	81%		Toxicity (cell proliferation): relatively non-toxic; Cell proliferation (cell proliferation; at some concentrations): accelerates cell proliferation; Insulin-like effects [5]: produces insulin-like effects in animals; Interaction with nicotine receptors (nicotine receptors): interaction with membrane receptors; Effect on ADP-ribosylation of proteins [6]: inhibit ADP-ribosylation of proteins; responders at 50 mg/kg [2, 8]: 50%; responders at 100 mg/kg [2, 8]: 75%; Interaction with intracellular imidazoline receptors [7]: interaction with membrane receptors; Interaction with NMDA receptors (NMDA receptors): interaction with membrane receptors
NCCCCN [Putrescine]	35%	0%	0%	30%								300 µM	Effect against ischemia-induced nerve cell death [1]: protecting against ischemia-induced nerve cell death in gerbils; Percent Protection ([3]; 0.005 μM): 2%; inhibition at 0.005 µM [3, 9]: 3%; viability at 0.005 µM [3, 10]: 32%
NCCCNCCCCNCCCN1c2ccccc2Sc2ccc(Cl)cc21 [G103, 2-chloro-N-[3-(8-spermidinyl)]-10H-Phenothiazine-10-propanamine.3 HCl]		25%	36%	55%	2 µM								lethality ([2]; 0.50 mg/kg ip, ischemic gerbils, n=5): lethal; responders at 0.01 mg/kg [2, 8]: 42%; responders at 0.1 mg/kg [2, 8]: 55%; Percent Protection ([3]; 0.10 μM): 2%; Percent Protection ([3]; 1 μM): -10%; inhibition at 0.1 µM [3, 9]: 3%; viability at 0.1 µM [3, 10]: 32%; viability at 1 µM [3, 10]: 20%
Cl.Cl.NCCCCNCCCN1c2ccccc2Sc2ccc(Cl)cc21 [G102, 2-chloro-N-(4-aminobutyl)-10H-Phenothiazine-10-propanamine-2HCl]							5%		7%		35%		toxic ([2]; 10 mg/kg ip, ischemic gerbils, n=10): 70%; responders at 1 mg/kg [2, 8]: 40%; responders at 5 mg/kg [2, 8]: 70%; Percent Protection ([3]; 1 μM): 40%; Percent Protection ([3]; 250 μM): 65%; inhibition at 1 µM [3, 9]: 57%; inhibition at 250 µM [3, 9]: 93%; viability at 1 µM [3, 10]: 70%; viability at 250 µM [3, 10]: 95%; Shape of dose-response curve for nerve cell survival (nerve cell survival): U-shaped dose-response curve
CNC1(C)C2CCC(C2)C1(C)C (centres unmarked) [Mecamylamine]	40%											500 µM	Percent Protection ([3]; 25 μM): 37%; inhibition at 25 µM [3, 9]: 53%; viability at 25 µM [3, 10]: 67%
C1C2CC3CC1CC(C2)C3 [Adamantane]						13%	20%	19%	29%	43%	50%	1000 µM	responders at 50 mg/kg [2, 8]: 23%
CCCC(C)C1(CC)C(=O)NC(=O)NC1=O (centres unmarked) [Pentobarbital, pentobarbital]													responders at 40 mg/kg ([2]; Meriones unguiculatus, Pyramidal neuron, 336 h, read-out: Percent Protection): 87%
NCCCNCCCCNCCCN [Spermine]	65%	38%	54%	68%									Effect against ischemia-induced nerve cell death [1]: protecting against ischemia-induced nerve cell death in gerbils; Percent Protection ([3]; 0.005 μM): -5%; viability at 0.005 µM [3, 10]: 25%; CC50 at 24 h [4]: 2 µM
C1CN2CCC1CC2 [Quinuclidine]	15%				100 µM	10%		14%		40%			Percent Protection ([3]; 1 μM): 5%; inhibition at 1 µM [3, 9]: 7%; viability at 1 µM [3, 10]: 35%
Clc1ccc2c(c1)Nc1ccccc1S2 [2-Cl-phenothiazine]	65%					15%	32%	21%	46%	45%	62%	5 µM	
